Data on five compounds can be found in patent publication US11427553B2, “Dihydrooxadiazinones” (Bayer Aktiengesellschaft, priority 2017, dated 2022).

In one assay the test system is HeLa cells. Kind of assay: Assay 1 cell proliferation measurement (CTG, 72 h), HeLa. Type of assay: cell-based, human. The note with it: Homo sapiens, HeLa; Assay 1, 72 h, Cell Titer Glo; read-out: HeLa IC50 [nM] (Cervical cancer). A digest of the protocol:
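Growth inhibition relative to a 0 h baseline plate and 0.3% DMSO control, with IC50 fitted by 4-parameter curve. Compound exposure lasted 72 h at 37 °C across a 2.5-fold, 10-step series starting generally at 100 nM final.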
A general note: Cellular ATP, detected with luciferase, serves as a proxy for viable cell number.

The test system of the next assay is IGR-1 cells. The assay is described as follows: Assay 1 cell proliferation measurement, IGR-1. The note with it: Homo sapiens, Melanoma, read-out: Anti-proliferation IC50 [nM] IGR-1. Type of assay: cell-based.
The subject of another assay is NCIH1563 cells. The assay is described as follows: Assay 2 cell proliferation measurement, NCIH1563. The format is cell-based. As to conditions: Homo sapiens, NCI-H1563, Lung adenocarcinoma, read-out: Anti-proliferation IC50 [nM] NCIH1563. As for the experimental part: (§1) Cell Proliferation Measurement
(§2) The antiproliferative activity of the compounds of the general formula (I) was examined in vitro in human cancer cells. For this purpose, 500 cells, including HeLa cells, A2058 cells, DU145 cells, HMCB cells, IGR37 cells, NCIH1734 cells, OSRC2 cells, or 750 cells, including CAL51 cells, COL0741 cells, DBTRG05MG cells, DKMG cells, G292CLONEA141B1 cells, GB1 cells, HEL cells, HEL9217 cells, JHUEM1 cells, L3.3 cells, LI7 cells, TE4 cells, or 1000 cells, including 8505C cells, HUT78 cells, NCIH1563 cells, NCIH2122 cells, NCIH2172 cells, RVH421 cells, SKMEL3 cells, or 1500 cells, including C32 cells, HS578T cells, JHOM1 cells, NCIH196 cells, OVKATE cells, were plated in 384-well plates with appropriate growth medium and incubated at 37° C. overnight. […] After 72 h, the cells were treated with 20 μl/well of 50% CTG solution in PBS (Promega Cell Titer Glo (catalogue #G755B and G756B)) and incubated at room temperature for 10 min, and luminescence was measured by means of a VICTOR V (Perkin Elmer), in order to determine cell viability at the end of treatment. The percentage effect on cell growth and the IC50 derived therefrom were determined for each test substance using the values from untreated wells (=percent viability). The IC50 values were calculated using a 4-parameter fit.

A further assay has as its system A2058 cells. The assay is described as follows: Assay 2 cell proliferation measurement, A2058. The format is cell-based. The note with it: Homo sapiens, Melanoma, read-out: Anti-proliferation IC50 [nM] A2058. As to the method:
as §1
(§3) The antiproliferative activity of the compounds of the general formula (I) was examined in vitro in human cancer cells. For this purpose, 500 cells, including HeLa cells, A2058 cells, DU145 cells, HMCB cells, IGR37 cells, NCIH1734 cells, OSRC2 cells, or 750 cells, including CAL51 cells, COL0741 cells, DBTRG05MG cells, DKMG cells, G292CLONEA141B1 cells, GB1 cells, HEL cells, HEL9217 cells, JHUEM1 cells, L3.3 cells, LI7 cells, TE4 cells, or 1000 cells, including 8505C cells, HUT78 cells, NCIH1563 cells, NCIH2122 cells, NCIH2172 cells, RVH421 cells, SKMEL3 cells, or 1500 cells, including C32 cells, HS578T cells, JHOM1 cells, NCIH196 cells, OVKATE cells, were plated in 384-well plates with appropriate growth medium and incubated at 37° C. overnight. After 24 h, the cells on the test plate were treated with the compounds of the general formula (I) as and incubated at 37° C. for 72 h. The compounds were added to the cells by means of an HP D300 digital dispenser in a 10 (or more)-step dilution series. As control, the cells were treated with vehicle (DMSO at 0.3% final concentration). After 72 h, the cells were treated with 20 μl/well of 50% CTG solution in PBS (Promega Cell Titer Glo (catalogue #G755B and G756B)) and incubated at room temperature for 10 min, and luminescence was measured by means of a VICTOR V (Perkin Elmer), in order to determine cell viability at the end of treatment. The percentage effect on cell growth and the IC50 derived therefrom were determined for each test substance using the values from untreated wells (=percent viability). The IC50 values were calculated using a 4-parameter fit.

The next assay deals with RVH421 cells. Kind of assay: Assay 2 cell proliferation measurement, RVH421. The format is cell-based. As to conditions: Homo sapiens, RVH-421, Melanoma, read-out: Anti-proliferation IC50 [nM] RVH421. As to the method:
as §1, §3

In a further assay the test system is SKMEL3 cells. Kind of assay: Assay 2 cell proliferation measurement, SKMEL3. As to conditions: Homo sapiens, SK-MEL3, Melanoma, read-out: Anti-proliferation IC50 [nM] SKMEL3. Type of assay: cell-based. As to the method: as §1, §3
The next assay deals with TE4 cells. Kind of assay: Assay 2 cell proliferation measurement, TE4. As to conditions: Homo sapiens, Oesophagus squamous cell carcinoma, read-out: Anti-proliferation IC50 [nM] TE4. The format is cell-based. As for the experimental part: as §1, §2
For assay [1], the system named is PA-1 xenograft (Ovarian teratocarcinoma). The assay is described as follows: Assay 3 in vivo xenotransplantation model, PA-1. As to conditions: PA-1 ovarian teratocarcinoma xenograft, mice. An excerpt:
(§4) In Vivo Xenotransplantation Models
(§5) The anti-tumor activities of Compounds of examples 135 and 146 were examined in murine xenotransplantation models of human cancer. For this purpose, mice were implanted subcutaneously with tumor cells. At a mean tumor size of 20-40 mm^2 animals were randomized into treatment and control groups (at least n=10 animals/group) and treatment started with vehicle only or respective Compound (formulation: 90% PEG400/10% Ethanol; application route: per os (“p.o.”), orally). The oral application volume was 10 ml/kg. In the case of twice daily treatments, the time interval between two applications per day was 6-7 h. The tumor size and the body weight were determined at least weekly. The tumor area was detected by means of an electronic caliper [length (mm)×width (mm)]. The experiment was ended when the study reached the pre-determined ethical endpoint based on German and European animal welfare regulations. In vivo anti-tumor efficacy is presented as T/C ratio at study end (Treatment/Control; mean tumor weight of treatment group/mean tumor weight of control group) in Table 8. A compound having a T/C below 0.5 is defined as active (i.e., effective). Statistical analysis was assessed using SigmaStat software. A one-way analysis of variance was performed and differences to the control were compared by a pair-wise comparison procedure (Dunn's method).

The subject of assay [2] is xenograft models of human tumors. Kind of assay: Assay 3 in vivo xenotransplantation models of human cancer (overall statement). As to conditions: monotherapy treatment, p.o., mice.
From the text: as §4, §5

The subject of the next assay is DBTRG-05-MG cells. The assay is described as follows: Assay 1 cell proliferation measurement, DBTRG-05-MG. Type of assay: cell-based. As to conditions: Homo sapiens, Glioblastoma, read-out: Anti-proliferation IC50 [nM] DBTRG-05-MG.

Where only a bound is given, the exact number is not on record here.

Take `C[C@@H]1OC(=O)NN=C1c1ccc(-c2ccc(F)cc2)c(C(F)(F)F)c1` [Example 135, (6S)-5-[4′-Fluoro-2-(trifluoromethyl)biphenyl-4-yl]-6-methyl-3,6-dihydro-2H-1,3,4-oxadiazin-2-one]: the IC50 with HeLa cells was 1 nM; in the assay on IGR-1 cells, greater than 100 nM; in the assay on NCIH1563 cells it was 18 nM; in the assay on A2058 cells it was 38 nM; with RVH421 cells, 140 nM; in the assay with SKMEL3 cells, 5 nM. The IC50 in the assay with TE4 cells stood at 15 nM. The “T/C (mean final tumor weight treatment / control)” value in assay [1] (5 mg/kg 2QD p.o.) was found to be 0.63. Besides, the “anti-tumor efficacy in xenograft models of human tumors” value in assay [2] is “potent anti-tumor efficacy”.

Turning to `O=C1NN=C(c2ccc(-c3ccc(F)cc3)c(C(F)(F)F)c2)CO1` [Example 3, 5-[4′-Fluoro-2-(trifluoromethyl)biphenyl-4-yl]-3,6-dihydro-2H-1,3,4-oxadiazin-2-one], the IC50 in the assay on HeLa cells was 3 nM; in the assay with IGR-1 cells, 99 nM.

`C[C@@H]1OC(=O)NN=C1c1ccc(-n2ccc(C(F)(F)F)n2)c(C(F)(F)F)c1` [Example 265, (6S)-6-Methyl-5-{3-(trifluoromethyl)-4-[3-(trifluoromethyl)-1H-pyrazol-1-yl]phenyl}-3,6-dihydro-2H-1,3,4-oxadiazin-2-one]: the IC50 was 2 nM in the assay with HeLa cells; 46 nM in the assay with NCIH1563 cells; 96 nM in the assay with A2058 cells; 262 nM with RVH421 cells; 10 nM in the assay with SKMEL3 cells; 41 nM in the assay with TE4 cells.

As to `O=C1NN=C(c2ccc(-c3ccc(Cl)cc3)c(C(F)(F)F)c2)CO1` [Example 31, 5-[4′-Chloro-2-(trifluoromethyl)biphenyl-4-yl]-3,6-dihydro-2H-1,3,4-oxadiazin-2-one], the figures for the IC50 in the assay with HeLa cells and in the assay on DBTRG-05-MG cells were 4 nM and 56 nM, respectively.

For `O=C1NN=C(c2ccc(-c3cnn(C(F)F)c3)c(C(F)(F)F)c2)CO1` [Example 146, 5-{4-[1-(Difluoromethyl)-1H-pyrazol-4-yl]-3-(trifluoromethyl)phenyl}-3,6-dihydro-2H-1,3,4-oxadiazin-2-one], the IC50 with HeLa cells stood at 1 nM; with DBTRG-05-MG cells, 14 nM; in the assay on A2058 cells, 25 nM; in the assay with RVH421 cells, 47 nM; with SKMEL3 cells, 3 nM. The “T/C (mean final tumor weight treatment / control)” value in assay [1] (20 mg/kg 2QD p.o., * P < 0.05 vs control) was 0.49*. In addition, the “anti-tumor efficacy in xenograft models of human tumors” value in assay [2] is given as “potent anti-tumor efficacy”.
